Active and inactive are the calls of the source.
What was measured:
[1] = DRD BJ cell killing, Ras synthetic lethality – DRD BJ fibroblasts, HRASV12, dry powder, dose response (AID 493049); assay type: functional, cell-based
[2] = BJeHLT cell viability loss – BJeHLT cells, dry powder, counter-screen for Ras selective lethality project, dose response (AID 493052); assay type: functional, cell-based; settings: Homo sapiens
[3] = BJeH cell viability loss – BJeH cells, dry powder, counter-screen for Ras selective lethality project, dose response (AID 493054); assay type: functional, cell-based
[4] = HRAS-V12 fibroblast viability reduction – cell-based, Alamar Blue, dry powder, Ras selective lethality project, primary screen (AID 493045); assay type: functional; settings: BJeLR
[5] = target: T1, G-protein coupled receptor 35 (Homo sapiens, UniProt Q9HC97); experiment: SAR analysis of Agonists of the GPR35 Receptor using an Image-Based Assay - Set 3. [Related pubchem assays (depositor defined):AID1961, AID1965]; assay type: functional
[6] = target: T1, G-protein coupled receptor 35; experiment: SAR analysis of Antagonists of the GPR35 Receptor using an Image-Based Assay - Set 4. [Related pubchem assays (depositor defined):[…]]; assay type: functional
[7] = target: G-protein coupled receptor 55 (Homo sapiens, UniProt Q9Y2T6); experiment: SAR analysis of selective Agonists of GPR55 using an Image-Based Assay - Set 2. [Related pubchem assays (depositor defined):AID1961, AID1965]; assay type: functional
[8] = target: T2, Cannabinoid receptor 1 (Homo sapiens, UniProt P21554); experiment: SAR analysis of antagonists of the Cannabinoid Receptor 1 using an Image-Based Assay - Set 3. [Related pubchem assays (depositor defined):AID1961, AID1965]; assay type: functional
[9] = target: T3, Cannabinoid receptor 2 (Homo sapiens, UniProt P34972); experiment: SAR analysis of agonists of the Cannabinoid Receptor 2 using an Image-Based Assay - Set 2. [Related pubchem assays (depositor defined):AID1961, AID1965]; assay type: functional
[10] = target: T3, Cannabinoid receptor 2; experiment: SAR analysis of antagonists of the Cannabinoid Receptor 2 using an Image-Based Assay - Set 2. [Related pubchem assays (depositor defined):AID1961, AID1965]; assay type: functional
[11] = target: T2, Cannabinoid receptor 1; experiment: SAR analysis of agonists of the Cannabinoid Receptor 1 using an Image-Based Assay - Set 3. [Related pubchem assays (depositor defined):AID1961, AID1965]; assay type: functional
[12] = target: T4, Caspase-7 (Homo sapiens, UniProt P55210); experiment: activation of caspase-7 zymogen – biochemical, absorbance, counter-screen for procaspase-3 activator project, dose response (AID 489013)
T4 sequence (P55210 whole entry): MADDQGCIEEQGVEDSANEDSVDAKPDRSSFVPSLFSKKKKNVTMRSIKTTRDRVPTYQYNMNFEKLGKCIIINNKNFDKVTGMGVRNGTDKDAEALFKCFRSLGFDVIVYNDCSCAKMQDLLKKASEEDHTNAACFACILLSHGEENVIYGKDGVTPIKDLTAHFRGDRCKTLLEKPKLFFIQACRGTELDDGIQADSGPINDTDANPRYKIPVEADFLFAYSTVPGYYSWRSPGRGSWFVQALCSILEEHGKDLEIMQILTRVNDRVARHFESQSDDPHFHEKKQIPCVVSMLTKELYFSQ

[13] = target: T5, Caspase-3 (Homo sapiens, UniProt P42574); experiment: activation of caspase-3 zymogen – biochemical, absorbance, dose response (AID 489014)
T5 sequence (P42574 whole entry): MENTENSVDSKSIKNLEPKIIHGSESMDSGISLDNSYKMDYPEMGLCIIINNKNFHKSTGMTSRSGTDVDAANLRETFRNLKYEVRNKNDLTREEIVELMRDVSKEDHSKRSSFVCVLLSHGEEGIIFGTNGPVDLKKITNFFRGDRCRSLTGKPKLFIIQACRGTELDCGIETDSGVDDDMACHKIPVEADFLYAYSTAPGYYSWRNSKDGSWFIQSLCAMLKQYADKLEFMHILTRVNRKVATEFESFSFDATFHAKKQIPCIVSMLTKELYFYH

[14] = target: NACHT, LRR and PYD domains-containing protein 3 (Homo sapiens, UniProt Q96P20); experiment: NALP3 inhibitors in yeast, dose response, luminescent (AID 488799); assay type: functional
[15] = target: T6, Streptokinase A (Streptococcus pyogenes serotype M1, UniProt P10520); experiment: viability-normalized secreted streptokinase activity reduction – plasminogen activation absorbance, OD405, dose response (AID 1914); assay type: functional, Streptococcus pyogenes M1 GAS;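 further: secreted streptokinase activity via plasminogen activation per viability signal from cell pellet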
T6 sequence (P10520 whole entry): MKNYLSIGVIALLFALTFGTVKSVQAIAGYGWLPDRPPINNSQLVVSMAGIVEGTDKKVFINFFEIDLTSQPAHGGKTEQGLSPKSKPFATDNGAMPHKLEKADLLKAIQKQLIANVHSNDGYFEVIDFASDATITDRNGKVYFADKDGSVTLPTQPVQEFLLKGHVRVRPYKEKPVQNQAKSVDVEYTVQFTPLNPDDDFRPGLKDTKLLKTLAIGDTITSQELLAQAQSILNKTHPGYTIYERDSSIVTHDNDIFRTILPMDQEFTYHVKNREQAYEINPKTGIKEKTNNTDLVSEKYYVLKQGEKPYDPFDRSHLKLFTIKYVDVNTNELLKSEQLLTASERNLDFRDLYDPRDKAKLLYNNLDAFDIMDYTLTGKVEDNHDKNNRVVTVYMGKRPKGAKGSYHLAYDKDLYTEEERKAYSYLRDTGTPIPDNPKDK

[16] = test system: Streptococcus; experiment: GAS UMAA2166 growth inhibition – luminescence, BacTiterGlo, counter-screen for streptokinase expression inhibitor project, dose response (AID 1915); assay type: functional, organism-based;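 further: potency for reduction of bacterial viability or growth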
[17] = test system: Streptococcus sp. 'group A'; experiment: Streptococcus pyogenes SK(-)GAS viability under kanamycin – luminescence, BacTiterGlo, confirmation, counter-screen for streptokinase expression inhibitor project, dose response (AID 1900); assay type: functional, organism-based
[18] = target: Albumin (Bos taurus, UniProt P02769); experiment: Counterscreen for inhibitors of T-cell receptor (TCR)-CD3 interaction: Fluorescence-based biochemical high throughput dose response assay to identify inhibitors of T-cell receptor (TCR)-CD3 interaction using a TAMRA-labeled BSA probe.; assay type: functional
[19] = target: T7, Corticotropin-releasing factor receptor 2/Corticotropin-releasing factor-binding protein (Homo sapiens, UniProt P24387+Q13324); experiment: activators of CRF receptor 2 with binding protein – uHTS hits, confirmation (AID 602473); assay type: functional; settings: read-out: EC50_Mean
T7 sequence (Q13324 whole entry): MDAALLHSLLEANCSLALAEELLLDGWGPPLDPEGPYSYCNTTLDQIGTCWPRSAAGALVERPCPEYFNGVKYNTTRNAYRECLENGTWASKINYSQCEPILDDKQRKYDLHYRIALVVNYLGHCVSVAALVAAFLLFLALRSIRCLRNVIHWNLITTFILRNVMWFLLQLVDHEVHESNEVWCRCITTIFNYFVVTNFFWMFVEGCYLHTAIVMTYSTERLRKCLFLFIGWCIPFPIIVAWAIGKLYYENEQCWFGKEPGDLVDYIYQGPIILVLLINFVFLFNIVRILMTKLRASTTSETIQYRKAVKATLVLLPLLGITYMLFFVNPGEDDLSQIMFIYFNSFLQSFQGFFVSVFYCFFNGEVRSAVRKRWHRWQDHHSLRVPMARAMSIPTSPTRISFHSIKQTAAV
T7 sequence (P24387 whole entry): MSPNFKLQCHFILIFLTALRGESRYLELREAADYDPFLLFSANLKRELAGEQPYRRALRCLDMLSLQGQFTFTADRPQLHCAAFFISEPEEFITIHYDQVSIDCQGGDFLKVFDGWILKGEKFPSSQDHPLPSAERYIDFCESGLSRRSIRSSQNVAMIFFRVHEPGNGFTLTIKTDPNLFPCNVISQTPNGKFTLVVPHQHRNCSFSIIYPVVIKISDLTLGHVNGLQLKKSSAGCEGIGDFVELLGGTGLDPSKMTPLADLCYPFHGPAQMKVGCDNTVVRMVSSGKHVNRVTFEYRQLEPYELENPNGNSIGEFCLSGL

[20] = target: T8, Dual specificity protein phosphatase 3 (Homo sapiens, UniProt P51452); experiment: SAR VHR1 Fluorescent Assay for In Vitro dose response studies Set 2. [Related pubchem assays (depositor defined):AID1654, AID1661, AID1878]; assay type: functional
[21] = target: T8, Dual specificity protein phosphatase 3; experiment: SAR VHR1 absorbance Assay for In Vitro dose response studies. [Related pubchem assays (depositor defined):AID1654, AID1661, AID1878, AID1992, AID2004]
[22] = target: T9, Tyrosine-protein phosphatase non-receptor type 7 (Homo sapiens, UniProt P35236); experiment: redox-active compounds inhibiting HePTP phosphatase – biochemical, fluorescence, mechanism study (AID 2068); assay type: functional
T9 sequence (P35236 whole entry): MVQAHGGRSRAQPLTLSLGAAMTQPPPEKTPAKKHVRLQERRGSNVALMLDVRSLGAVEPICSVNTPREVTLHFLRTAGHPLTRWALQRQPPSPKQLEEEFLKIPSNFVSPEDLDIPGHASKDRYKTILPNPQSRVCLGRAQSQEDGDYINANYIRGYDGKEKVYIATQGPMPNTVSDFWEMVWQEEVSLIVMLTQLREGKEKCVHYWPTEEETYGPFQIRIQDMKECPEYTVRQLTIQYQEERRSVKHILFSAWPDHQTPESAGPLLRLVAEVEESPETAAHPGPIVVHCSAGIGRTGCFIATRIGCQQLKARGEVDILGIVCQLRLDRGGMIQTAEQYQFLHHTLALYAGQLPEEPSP

[23] = target: T10, Dual specificity protein phosphatase 6 (Rattus norvegicus, UniProt Q64346); assay type: functional;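 further: confirmatory in vitro dose-response testing of MKP-3 inhibition; recombinant His-tagged MKP-3 made in E. coli BL21 with OMFP substrate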
T10 sequence (Q64346 whole entry): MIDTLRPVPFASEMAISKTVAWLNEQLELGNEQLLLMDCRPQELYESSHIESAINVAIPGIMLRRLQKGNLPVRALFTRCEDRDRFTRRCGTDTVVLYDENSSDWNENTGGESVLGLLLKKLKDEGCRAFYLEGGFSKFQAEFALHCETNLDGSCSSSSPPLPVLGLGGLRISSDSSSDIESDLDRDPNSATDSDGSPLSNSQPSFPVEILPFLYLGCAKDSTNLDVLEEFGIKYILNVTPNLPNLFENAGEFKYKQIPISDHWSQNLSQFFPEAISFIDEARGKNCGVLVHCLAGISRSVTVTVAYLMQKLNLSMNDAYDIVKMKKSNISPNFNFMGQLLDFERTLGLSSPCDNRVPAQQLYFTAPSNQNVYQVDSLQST

[24] = target: T8, Dual specificity protein phosphatase 3; experiment: SAR VHR1 Fluorescent Assay for In Vitro dose response studies. [Related pubchem assays (depositor defined):AID1654, AID1661, AID1878, AID1992, AID2004, AID2070, AID2085]; assay type: functional
[25] = target: Hexokinase (Trypanosoma brucei, UniProt Q38C41); experiment: Confirmation assay for inhibitors of Trypanosoma brucei hexokinase 1-Analogue-first series. [Related pubchem assays (depositor defined):AID1430, AID1632, AID2516, AID2560, AID2579, AID2600, AID449725, AID492951]; assay type: functional
[26] = target: DNA dC->dU-editing enzyme APOBEC-3G (Homo sapiens, UniProt Q9HC16); assay type: functional;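 further: Dose-response counterscreen measuring inhibition of APOBEC3G DNA deaminase activity, run while confirming APOBEC3A inhibitors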
[27] = target: DNA dC->dU-editing enzyme APOBEC-3A (Homo sapiens, UniProt P31941); experiment: Dose Response confirmation of small molecule APOBEC3A DNA Deaminase Inhibitors via a fluorescence-based single-stranded DNA deaminase assay. [Related pubchem assays (depositor defined):AID493011, AID493024]; assay type: functional
Sequence of DNA dC->dU-editing enzyme APOBEC-3A (P31941 whole entry): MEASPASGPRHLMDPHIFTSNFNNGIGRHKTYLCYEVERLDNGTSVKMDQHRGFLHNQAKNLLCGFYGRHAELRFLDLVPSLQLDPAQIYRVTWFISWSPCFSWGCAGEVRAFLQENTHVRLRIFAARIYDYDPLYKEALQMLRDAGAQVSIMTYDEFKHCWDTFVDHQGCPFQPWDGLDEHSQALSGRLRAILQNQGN

T3 sequence (P34972 whole entry): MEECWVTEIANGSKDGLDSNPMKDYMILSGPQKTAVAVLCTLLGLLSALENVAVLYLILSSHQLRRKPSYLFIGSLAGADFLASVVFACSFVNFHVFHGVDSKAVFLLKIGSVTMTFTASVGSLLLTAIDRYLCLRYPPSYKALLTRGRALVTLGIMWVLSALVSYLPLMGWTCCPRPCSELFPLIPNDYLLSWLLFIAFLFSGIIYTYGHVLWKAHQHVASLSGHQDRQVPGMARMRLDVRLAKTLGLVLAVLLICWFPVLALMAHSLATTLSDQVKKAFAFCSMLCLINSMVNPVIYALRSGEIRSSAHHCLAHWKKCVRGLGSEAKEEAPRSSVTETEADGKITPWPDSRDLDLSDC
T8 sequence (P51452 whole entry): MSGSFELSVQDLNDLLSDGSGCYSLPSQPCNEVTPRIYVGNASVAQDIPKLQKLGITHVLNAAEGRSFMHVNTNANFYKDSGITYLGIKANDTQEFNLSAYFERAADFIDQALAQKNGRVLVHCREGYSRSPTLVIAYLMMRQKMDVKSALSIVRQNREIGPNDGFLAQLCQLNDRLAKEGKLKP
T1 sequence (Q9HC97 whole entry): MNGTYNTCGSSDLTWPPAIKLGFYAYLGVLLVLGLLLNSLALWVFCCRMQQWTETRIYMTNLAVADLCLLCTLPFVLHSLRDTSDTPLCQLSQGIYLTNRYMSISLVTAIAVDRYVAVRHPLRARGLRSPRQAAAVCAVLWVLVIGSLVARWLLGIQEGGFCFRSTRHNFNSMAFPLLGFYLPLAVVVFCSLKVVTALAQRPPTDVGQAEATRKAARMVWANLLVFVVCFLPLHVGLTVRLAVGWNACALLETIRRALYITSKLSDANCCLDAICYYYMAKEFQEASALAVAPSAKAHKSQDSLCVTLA
T2 sequence (P21554 whole entry): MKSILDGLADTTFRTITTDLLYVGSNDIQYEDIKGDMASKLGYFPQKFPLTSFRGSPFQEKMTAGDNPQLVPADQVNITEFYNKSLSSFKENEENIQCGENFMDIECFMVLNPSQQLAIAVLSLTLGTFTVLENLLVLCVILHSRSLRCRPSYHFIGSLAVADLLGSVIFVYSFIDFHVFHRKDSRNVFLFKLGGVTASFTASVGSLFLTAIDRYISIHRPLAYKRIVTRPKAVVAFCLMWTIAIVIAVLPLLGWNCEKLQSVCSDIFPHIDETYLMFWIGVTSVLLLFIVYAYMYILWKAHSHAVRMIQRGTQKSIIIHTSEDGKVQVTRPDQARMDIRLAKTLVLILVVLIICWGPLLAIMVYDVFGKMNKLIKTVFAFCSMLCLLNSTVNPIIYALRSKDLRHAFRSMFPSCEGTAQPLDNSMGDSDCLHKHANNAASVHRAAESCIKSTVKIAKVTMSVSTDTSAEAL
Sequence of DNA dC->dU-editing enzyme APOBEC-3G (Q9HC16 whole entry): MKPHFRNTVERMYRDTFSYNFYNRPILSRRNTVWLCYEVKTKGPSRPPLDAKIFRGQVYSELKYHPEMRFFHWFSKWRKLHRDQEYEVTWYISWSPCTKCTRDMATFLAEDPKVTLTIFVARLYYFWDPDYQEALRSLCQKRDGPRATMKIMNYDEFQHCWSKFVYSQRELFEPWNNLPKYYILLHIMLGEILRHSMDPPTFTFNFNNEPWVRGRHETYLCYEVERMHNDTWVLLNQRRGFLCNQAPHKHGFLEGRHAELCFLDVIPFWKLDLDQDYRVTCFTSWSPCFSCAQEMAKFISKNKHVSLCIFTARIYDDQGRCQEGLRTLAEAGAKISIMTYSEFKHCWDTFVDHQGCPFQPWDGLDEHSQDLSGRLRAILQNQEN
Sequence of Hexokinase (Q38C41 whole entry): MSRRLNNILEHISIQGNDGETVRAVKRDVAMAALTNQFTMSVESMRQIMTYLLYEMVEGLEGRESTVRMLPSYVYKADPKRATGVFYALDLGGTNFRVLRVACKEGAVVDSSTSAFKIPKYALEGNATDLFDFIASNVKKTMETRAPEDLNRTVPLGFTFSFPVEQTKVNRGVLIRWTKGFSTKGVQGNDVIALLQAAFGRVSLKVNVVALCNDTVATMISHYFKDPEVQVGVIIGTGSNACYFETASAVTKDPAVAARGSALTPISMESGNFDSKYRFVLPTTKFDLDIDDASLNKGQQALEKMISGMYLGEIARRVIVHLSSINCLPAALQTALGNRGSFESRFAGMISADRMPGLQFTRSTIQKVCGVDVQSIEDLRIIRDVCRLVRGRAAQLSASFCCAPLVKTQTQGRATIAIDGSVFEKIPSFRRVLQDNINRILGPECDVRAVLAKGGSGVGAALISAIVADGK
Sequence of G-protein coupled receptor 55 (Q9Y2T6 whole entry): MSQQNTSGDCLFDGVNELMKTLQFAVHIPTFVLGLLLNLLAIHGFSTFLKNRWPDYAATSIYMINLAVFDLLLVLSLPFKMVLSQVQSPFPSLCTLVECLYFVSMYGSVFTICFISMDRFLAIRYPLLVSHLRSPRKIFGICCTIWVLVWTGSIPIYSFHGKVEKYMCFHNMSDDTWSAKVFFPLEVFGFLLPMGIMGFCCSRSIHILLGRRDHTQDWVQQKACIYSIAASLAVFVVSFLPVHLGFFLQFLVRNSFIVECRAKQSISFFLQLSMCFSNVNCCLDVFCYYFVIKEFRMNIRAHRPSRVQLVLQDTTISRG
Sequence of NACHT, LRR and PYD domains-containing protein 3 (Q96P20 whole entry, the tested form may be a part): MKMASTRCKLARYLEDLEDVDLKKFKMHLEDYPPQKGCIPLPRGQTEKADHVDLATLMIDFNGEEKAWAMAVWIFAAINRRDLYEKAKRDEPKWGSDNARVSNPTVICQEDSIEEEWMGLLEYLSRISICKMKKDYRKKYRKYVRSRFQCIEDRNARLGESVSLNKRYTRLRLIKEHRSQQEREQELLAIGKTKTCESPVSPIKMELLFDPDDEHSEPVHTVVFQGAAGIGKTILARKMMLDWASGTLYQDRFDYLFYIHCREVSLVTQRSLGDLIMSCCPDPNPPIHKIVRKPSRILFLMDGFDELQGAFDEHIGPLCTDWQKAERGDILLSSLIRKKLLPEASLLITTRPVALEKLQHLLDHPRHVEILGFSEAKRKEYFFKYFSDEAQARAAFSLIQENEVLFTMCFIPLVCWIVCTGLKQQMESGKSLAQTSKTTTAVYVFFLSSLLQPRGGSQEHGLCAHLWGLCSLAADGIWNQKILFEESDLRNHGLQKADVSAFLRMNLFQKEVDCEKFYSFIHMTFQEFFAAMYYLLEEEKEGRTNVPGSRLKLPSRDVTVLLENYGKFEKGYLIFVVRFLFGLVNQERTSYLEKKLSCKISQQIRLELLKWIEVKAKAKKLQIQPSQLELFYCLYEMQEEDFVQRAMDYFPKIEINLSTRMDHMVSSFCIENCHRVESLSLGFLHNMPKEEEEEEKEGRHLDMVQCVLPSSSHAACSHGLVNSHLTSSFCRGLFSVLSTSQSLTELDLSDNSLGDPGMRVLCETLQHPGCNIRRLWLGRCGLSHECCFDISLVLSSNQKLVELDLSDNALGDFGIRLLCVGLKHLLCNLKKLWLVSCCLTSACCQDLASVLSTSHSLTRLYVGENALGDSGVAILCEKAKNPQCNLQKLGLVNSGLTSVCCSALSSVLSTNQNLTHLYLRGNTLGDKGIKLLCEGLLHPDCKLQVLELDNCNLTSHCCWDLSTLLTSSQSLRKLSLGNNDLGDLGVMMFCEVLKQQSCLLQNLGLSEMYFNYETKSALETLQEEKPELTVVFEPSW
Sequence of Albumin (P02769 whole entry): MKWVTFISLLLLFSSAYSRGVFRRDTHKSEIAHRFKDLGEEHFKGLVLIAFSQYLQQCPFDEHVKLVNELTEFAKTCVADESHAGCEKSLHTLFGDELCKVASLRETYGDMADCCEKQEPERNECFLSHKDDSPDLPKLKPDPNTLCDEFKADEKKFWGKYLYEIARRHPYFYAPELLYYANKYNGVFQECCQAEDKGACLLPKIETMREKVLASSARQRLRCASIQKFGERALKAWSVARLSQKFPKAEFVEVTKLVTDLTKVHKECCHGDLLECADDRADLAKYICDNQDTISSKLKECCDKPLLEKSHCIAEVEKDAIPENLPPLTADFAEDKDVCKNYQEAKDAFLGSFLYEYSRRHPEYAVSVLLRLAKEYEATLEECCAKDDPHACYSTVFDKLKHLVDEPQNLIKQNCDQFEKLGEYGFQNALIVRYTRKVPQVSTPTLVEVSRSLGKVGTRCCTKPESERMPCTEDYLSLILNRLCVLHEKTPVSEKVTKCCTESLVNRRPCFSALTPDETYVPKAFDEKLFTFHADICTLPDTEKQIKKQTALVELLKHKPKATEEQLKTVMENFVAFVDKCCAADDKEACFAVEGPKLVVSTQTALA

## COc1ccc(N(C(=O)CCl)C(C)(C)C(=O)NCCc2ccccc2)cc1Cl
[1]
  AC50: 0.06 µM (active)
[2]
  AC50: 0.127 µM (active)
[3]
  AC50: 0.254 µM (active)
[4]
  AC50: 0.058 µM (active)

## CCCc1cc(C(=O)Nc2cc(S(=O)(=O)N3CCOCC3)ccc2OC)sc1C
[5]
  EC50: > 32 µM (inactive)
[6]
  IC50: > 32 µM (inactive)
[7]
  EC50: > 32 µM (inactive)
[8]
  IC50: 7.68 µM (active)
[9]
  EC50: > 32 µM (inactive)
[10]
  IC50: > 32 µM (inactive)
[11]
  EC50: > 32 µM (inactive)

## O=C(NCCc1ccccc1)C(c1cccs1)N(C(=O)CCl)c1cccc(Cl)c1 (stereo unspecified)
[1]
  AC50: 0.154 µM (active)
[2]
  AC50: 0.331 µM (active)
[3]
  AC50: 0.544 µM (active)
[4]
  AC50: 0.156 µM (active)

## CC(NC(=O)c1cc2cc([N+](=O)[O-])ccc2oc1=O)C1CCCO1 (stereo unspecified)
[12]
  EC50: 20.2 µM (inactive)
[13]
  EC50: 13.4 µM (inactive)

## Cn1c(=O)c(C(=O)NNC(=O)c2ccccc2F)c(O)c2ccccc21
[14]
  IC50: 1.94 µM (active)
[15]
  EC50: > 150 µM (not active)
[16]
  EC50: 18.6 µM (active)
[17]
  EC50: 4.65 µM (active)
[18]
  IC50: > 94.1 µM (inactive)
[19]
  EC50: 5.36 µM (active)

## NS(=O)(=O)c1cccc(C(=O)NC2CCSc3ccccc32)c1 (stereo unspecified)
[20]
  IC50: > 100 µM (inactive)
[21]
  IC50: > 100 µM (inactive)
[22]
  IC50: > 100 µM (inactive)
[23]
  IC50: > 100 µM (inactive)
[24]
  IC50: > 100 µM (inactive)

## N#Cc1ccc(Oc2ccc3c(c2)B(O)OC3)cc1
[25]
  IC50: > 25 µM (inactive)

## COc1ccc2c(c1)cc(C)c1nnc(SCC(=O)Nc3nc(C)cs3)n12
[5]
  EC50: > 32 µM (inactive)
[6]
  IC50: > 32 µM (inactive)
[7]
  EC50: > 32 µM (inactive)
[8]
  IC50: > 32 µM (inactive)
[9]
  EC50: > 32 µM (inactive)
[10]
  IC50: > 32 µM (inactive)
[11]
  EC50: > 32 µM (inactive)

## CC(C)(C)c1ccc(C(=O)Nc2cc(Br)ccc2C(=O)O)cc1
[25]
  IC50: 2.39 µM (active)

## COc1ccccc1OC(C)C(=O)N1CCC(Cc2ccccc2)CC1 (stereo unspecified)
[26]
  IC50: 6.99 µM (active)
[27]
  IC50: 7.11 µM (active)

## CCN1CCN(c2ccc(S(=O)(=O)N3CCCCC3)cc2NC(=O)c2ccc(OC(F)F)cc2)CC1
[26]
  IC50: 9.05 µM (active)
[27]
  IC50: 10.9 µM (active)

Reference: ChEMBL document CHEMBL1201862, “PubChem BioAssay data set” (2004)
